The text below walks through data of patent US20100292185A1, “BETA-LACTAMASE INHIBITORS” (priority 2009, published 2010).

Structures can show the parent of a compound that is named as a salt. Where two headings read alike, the source gives them in different places.

For experiment [1], the target named is T1, SHV-5 β-lactamase (Klebsiella pneumoniae, UniProt P0A3M1).
T1 construct: expressed as native untagged proteins; made in house; host or cells: E. coli BL21(DE3)
Briefly: β-lactamase enzyme inhibition assay (nitrocefin substrate), SHV-5. In kind it is biochemical. The method, boiled down:
(§1)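 Initial nitrocefin hydrolysis (100 µM final, A486 kinetic over 10 min) was measured after a 10-min, 37 °C preincubation of each purified untagged enzyme with compound at 100–0.005 µM in PBS pH 7.0. Percent inhibition relative to inhibitor-free wells gave the IC50. Enzymes were produced in E. coli BL21(DE3).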

Experiment [2] has as its target T2, CTX-M15 β-lactamase (Escherichia coli, UniProt Q9EXV5).
T2 construct: expressed as native untagged proteins; made in house; host or cells: E. coli BL21(DE3)
The experiment can be described thus: β-lactamase enzyme inhibition assay (nitrocefin substrate), CTXM-15. Format: biochemical. In outline:
as §1

The target of experiment [3] is T3, p99 AmpC β-lactamase (Enterobacter cloacae, UniProt P05364).
T3 construct: expressed as native untagged proteins; made in house; host or cells: E. coli BL21(DE3)
The experiment can be described thus: β-lactamase enzyme inhibition assay (nitrocefin substrate), P99 AmpC. Format: biochemical. The method, boiled down: as §1

Experiment [4] deals with T4, KPC-2 β-lactamase (Klebsiella pneumoniae, UniProt Q9F663).
T4 construct: expressed as native untagged proteins; made in house; host or cells: E. coli BL21(DE3)
Briefly: β-lactamase enzyme inhibition assay (nitrocefin substrate), KPC-2. Format: biochemical. The method, boiled down:
as §1

Experiment [5] deals with T5, VIM-2 metallo β-lactamase (Pseudomonas aeruginosa, UniProt Q9K2N0).
T5 construct: made in house
Briefly: β-lactamase enzyme inhibition assay (nitrocefin substrate), VIM-2. Format: biochemical. The procedure:
Isolation of β-lactamases. For SHV-5, p99 AmpC, KPC-2 and CTX-M15 β-lactamases, E. coli BL21(DE3) bacterial cells carrying expression plasmids (expressed as native untagged proteins) for the individual β-lactamases were grown in 1 L of Superbroth (Teknova Inc. Hollister, Calif.) supplemented with 100 μg/ml kanamycin and 1×5052 (0.5% glycerol, 0.05% glucose and 0.2% α-lactose) at 35° C. for 18-20 hours. Cells were harvested by centrifugation (4,000×g, 4° C., 20 min), and resuspended in 50 ml of 10 mM HEPES pH 7.5 (1/20 of the initial volume). The cells were lysed by sonication (5 pulses of 45 seconds) at 45 W on ice. The lysates were clarified by centrifugation at 10,000×g for 40 minutes at 4° C. Samples were diluted 5-fold in 50 mM sodium acetate pH 5.0, stored overnight at 4° C., after which they were centrifuged at 10,000×g for 30 minutes to clarify, and filtered through 0.45 μm filters. The samples were loaded onto a 5 ml Capto S sepharose cation exchange column (GE Healthcare) pre-equilibrated with 50 mM sodium acetate pH 5.0. The column was washed with 5 column volumes of 50 mM sodium acetate pH 5.0 to wash out unbound protein and a linear gradient of NaCl (0 to 500 mM) was used to elute the protein (over 16 CV) from the column. Fractions were assayed for β-lactamase activity using Centa (Calbiochem, Gibbstown, N.J.) as a reporter β-lactamase substrate for activity in the isolated fractions. Active fractions were pooled, concentrated and further purified by gel filtration chromatography on a Superdex 75 prep grade gel filtration column (GE Healthcare, Piscataway, N.J.) pre-equilibrated in 50 mM Hepes pH 7.5, 150 mM NaCl. Active fractions were pooled concentrated, quantitated by BCA protein determination (Thermo Scientific, Rockford, Ill.), and frozen at −80° C. in 20% glycerol until use.
For VIM-2 metallo (β-lactamase, the procedure was identical with the following exceptions: 1) the protein was not pH adjusted to pH 5 with 50 mM sodium acetate, 2) the chromatography step was changed to a 5 ml Q sepharose anion exchange column pre-equilibrated with 50 mM Hepes pH 7.5, and 3) elution of the protein was achieved by a linear gradient of NaCl (0-600 mM). Finally, the VIM-2 purification required a second run (3rd step) on the Q sepharose anion exchange column to achieve acceptable purity (>90%).
β-lactamase Inhibition. To determine the level of inhibition of β-lactamase enzymes, compounds were diluted in PBS at pH 7.0 to yield concentrations between 100 and 0.005 μM in microtiter plates. An equal volume of diluted enzyme stock was added, and the plates were incubated at 37° C. for 10 min. Nitrocefin solution was then dispensed as substrate into each well at a final concentration of 100 μM, and the plates were immediately read with the kinetic program at 486 nm for 10 min on the SPECTRAMAX® Plus^384 (high-throughput microplate spectrophotometer; Molecular Devices Corp., Sunnyvale, Calif.). Maximum rates of metabolism were then compared to those in control wells (without inhibitors), and percentages of enzyme inhibition were calculated for each concentration of inhibitor. The concentration of inhibitor needed to reduce the initial rate of hydrolysis of substrate by 50% (IC50) was calculated as the residual activity of β-lactamase at 486 nm using the SoftMax Pro 5.0 software (Molecular Devices Corp.).
Using the methodology described above, examples of the current invention were evaluated for their ability to inhibit β-lactamase enzymes. The results of these assays are summarized in Table 2 for representative enzymes across different subtypes (note SHV-5 and CTXM-15 exemplify different subclasses of Ambler Class A Extended Spectrum Beta Lactamases, KPC-2 exemplifies Class A carbapenemases, P99 represents chromosomal Class C AmpC, VIM-2 exemplifies subclass B1 of metallo-β-lactamases, and OXA-23 represents chromosome-encoded Class D oxacillin-hydrolyzing β-lactamases), NT=not tested.

The target of experiment [6] is T6, OXA-23 β-lactamase (Acinetobacter baumannii, UniProt Q9L4P2).
T6 construct: crude β-lactamase extracts were prepared from 20 ml overnight cultures; endogenous in cells; host or cells: Acinetobacter baumannii cells containing OXA-23 (crude freeze-thaw extract)
The experiment can be described thus: β-lactamase enzyme inhibition assay (nitrocefin substrate), OXA-23 crude extract. In kind it is biochemical. In outline:
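Crude enzyme came from freeze-thaw extracts of mid-log OXA-23-carrying A. baumannii grown in MH-II broth at 37° C. Inhibitors (100–0.005 μM in PBS pH 7.0) were preincubated with the enzyme for 10 min at 37° C, then 100 μM nitrocefin (final) was added and read kinetically at 486 nm for 10 min. IC50 was taken from initial hydrolysis rates relative to uninhibited controls.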

Experiment [7] relates to E. coli expressing the Class A ESBL SHV-5. Briefly: In vitro antibacterial assay of β-lactamase inhibition (broth microdilution MIC), E. coli SHV-5. In kind it is cell-based. As to conditions: in presence of Ceftazidime 8 μg/ml (Examples 1-56). In outline:
(§2)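 Each strain, maintained under 50 μg/mL ampicillin selection, was exposed to twofold compound dilutions (final range 8 μg/mL to 0.015 μg/ml) combined with a β-lactam antibiotic in cation-adjusted Mueller Hinton broth. The MIC was judged visually following overnight (16-20 h) incubation at 37° C.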
For orientation: Broth dilution looks for growth in wells or tubes with falling amounts of substance.

In experiment [8] the test system is K. pneumoniae expressing the Class A Extended Spectrum Beta-Lactamase (ESBL) CTX-M-15. Briefly: In vitro antibacterial assay of β-lactamase inhibition (broth microdilution MIC), K. pneumoniae CTX-M-15. In kind it is cell-based. The settings on record: in presence of Ceftazidime 8 μg/ml (Examples 1-56). In outline: as §2
Experiment [9] has as its system E. cloacae expressing the Class C P99+. Briefly: In vitro antibacterial assay of β-lactamase inhibition (broth microdilution MIC), E. cloacae P99+. In kind it is cell-based. As to conditions: in presence of Ceftazidime 8 μg/ml (Examples 1-56). The method, boiled down:
as §2

Experiment [10] has as its system K. pneumoniae expressing the Class A carbapenemase KPC-2. Briefly: microbe, parasite or virus in culture. Format: cell-based. The settings on record: in presence of Ceftazidime 8 μg/ml (Examples 1-56). The method, boiled down: as §2
In experiment [11] the test system is P. aeruginosa expressing the Class B metallo β-lactamase VIM-2. The experiment can be described thus: In vitro antibacterial assay of β-lactamase inhibition (broth microdilution MIC), P. aeruginosa VIM-2. In kind it is cell-based. The settings on record: in presence of Ceftazidime 16 μg/mL (Examples 1-56). In outline:
as §2

Setting [12] is: nitrocefin 100 μM, 37° C., PBS pH 7.0, read-out: P99 AmpC IC50.
Setting [13] is: nitrocefin 100 μM, 37° C., PBS pH 7.0, read-out: VIM-2 IC50.
Where [14] appears, read: nitrocefin 100 μM, 37° C., PBS pH 7.0, read-out: OXA-23 IC50.

T2 sequence (Q9EXV5 entry or part of it): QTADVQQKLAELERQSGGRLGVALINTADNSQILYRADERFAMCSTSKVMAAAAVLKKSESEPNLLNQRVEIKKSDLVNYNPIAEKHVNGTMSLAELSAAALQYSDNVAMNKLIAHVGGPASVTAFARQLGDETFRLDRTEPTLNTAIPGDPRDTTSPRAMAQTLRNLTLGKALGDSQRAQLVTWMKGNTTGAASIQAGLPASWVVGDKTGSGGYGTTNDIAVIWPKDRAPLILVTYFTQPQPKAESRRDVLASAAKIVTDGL
T3 sequence (P05364 21-381): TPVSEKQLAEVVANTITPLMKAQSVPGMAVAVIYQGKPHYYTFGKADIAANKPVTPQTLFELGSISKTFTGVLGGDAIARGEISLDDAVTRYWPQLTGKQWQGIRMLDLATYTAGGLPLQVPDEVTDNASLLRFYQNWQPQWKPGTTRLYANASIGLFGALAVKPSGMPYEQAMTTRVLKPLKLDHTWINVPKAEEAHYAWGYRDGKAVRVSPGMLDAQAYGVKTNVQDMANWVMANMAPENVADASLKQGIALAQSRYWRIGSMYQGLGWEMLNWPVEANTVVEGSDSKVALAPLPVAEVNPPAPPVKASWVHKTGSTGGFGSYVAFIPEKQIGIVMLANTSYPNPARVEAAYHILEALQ
T6 sequence (Q9L4P2 18-273): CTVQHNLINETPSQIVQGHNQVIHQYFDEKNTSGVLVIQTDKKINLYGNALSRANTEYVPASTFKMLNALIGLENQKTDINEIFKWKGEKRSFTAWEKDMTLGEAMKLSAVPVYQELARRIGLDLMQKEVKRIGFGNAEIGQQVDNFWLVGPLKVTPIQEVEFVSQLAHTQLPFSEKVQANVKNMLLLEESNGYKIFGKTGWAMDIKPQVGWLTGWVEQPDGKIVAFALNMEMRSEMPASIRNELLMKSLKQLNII
T1 sequence (P0A3M1 22-286): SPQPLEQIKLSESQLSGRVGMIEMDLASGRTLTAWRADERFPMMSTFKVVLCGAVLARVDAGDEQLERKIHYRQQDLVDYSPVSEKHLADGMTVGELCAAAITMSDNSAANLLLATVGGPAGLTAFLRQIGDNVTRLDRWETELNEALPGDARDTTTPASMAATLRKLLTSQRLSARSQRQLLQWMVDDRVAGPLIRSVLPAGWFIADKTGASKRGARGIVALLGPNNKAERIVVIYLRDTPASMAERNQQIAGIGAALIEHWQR
T4 sequence (Q9F663 25-293 limits assumed): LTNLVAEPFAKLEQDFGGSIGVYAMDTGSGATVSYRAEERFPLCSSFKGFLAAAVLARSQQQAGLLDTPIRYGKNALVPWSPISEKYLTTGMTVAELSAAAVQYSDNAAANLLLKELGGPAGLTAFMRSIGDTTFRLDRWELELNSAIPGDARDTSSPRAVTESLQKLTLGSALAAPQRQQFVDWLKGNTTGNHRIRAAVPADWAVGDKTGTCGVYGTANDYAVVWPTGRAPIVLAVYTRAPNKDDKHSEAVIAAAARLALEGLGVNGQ

Take `CC/C(=N/O)C(=O)N[C@@H](Cc1cccc(C(=O)O)c1O)B(O)O` [Example 55, 3-[2(R)-(2-hydroxyimino-butyrylamino)-2-borono-ethyl]-2-hydroxy-benzoic acid]: the 50% inhibitory concentration (IC50) was 120 nM in experiment [1]; 1 nM in experiment [2]; 0.5 nM in experiment [3] (setting [12]); 6 nM in experiment [4]; > 1000 nM in [5] (setting [13]); 67 nM in experiment [6] (setting [14]). In experiment [7], the “MIC of example compound, E. coli SHV-5” value stood at 2 µg/mL. In experiment [8], the “MIC of example compound, K. pneumoniae CTX-M-15” value (shortened to “MIC … K. pneumoniae CTX-M-15”) is 2 µg/mL. Also, in experiment [9], the “MIC of example compound, E. cloacae P99+” value was determined as 1 µg/mL. In [10], the “MIC of example compound, K. pneumoniae KPC-2” value (“MIC … K. pneumoniae KPC-2” below) is 0.06 µg/mL. Besides, the “MIC of example compound, P. aeruginosa VIM-2” value (shortened to “MIC … P. aeruginosa VIM-2”) in experiment [11] is >8 µg/mL.

Turning to `O=C(Cc1ccc(CN2CCNCC2)cc1)N[C@@H](Cc1cccc(C(=O)O)c1O)B(O)O` [Example 37, (1R)-[2-(4-piperazin-1-ylmethyl-phenyl)-acetylamino]-(3-carboxy-2hydroxy)benzyl-methylboronic acid formate], the IC50 in experiment [1] is 2 nM; in [2], 7 nM; in experiment [3] (setting [12]), 2 nM; in [4], 9 nM; in experiment [5] (setting [13]), 785 nM; in [6] (setting [14]) it was 83 nM. Further, the “MIC of example compound, E. coli SHV-5” value in experiment [7] was determined as 2 µg/mL. In addition, the “MIC … K. pneumoniae CTX-M-15” value in [8] was found to be 2 µg/mL. Moreover, the “MIC of example compound, E. cloacae P99+” value in experiment [9] was 2 µg/mL. Besides, in experiment [10], the “MIC … K. pneumoniae KPC-2” value was 0.03 µg/mL. Besides, the “MIC … P. aeruginosa VIM-2” value in experiment [11] is >8 µg/mL.

As for `NCCNCc1ccc(CC(=O)N[C@@H](Cc2cccc(C(=O)O)c2O)B(O)O)cc1` [Example 35, (1R)-[2-{4-((2-amino-ethylamino)-methyl)-phenyl}-acetylamino]-(3-carboxy-2hydroxy)benzyl-methylboronic acid formate], the IC50 in experiment [1] was 2 nM; in experiment [2], 7 nM; in experiment [3] (setting [12]) it was 5 nM; in experiment [4], 17 nM; in [5] (setting [13]) it was 196 nM; in [6] (setting [14]), 97 nM. Also, the “MIC of example compound, E. coli SHV-5” value in [7] amounted to 0.5 µg/mL. Besides, the “MIC … K. pneumoniae CTX-M-15” value in experiment [8] is 0.25 µg/mL. In addition, the “MIC of example compound, E. cloacae P99+” value in [9] turned out to be 0.25 µg/mL. Besides, the “MIC … K. pneumoniae KPC-2” value in experiment [10] was found to be 0.03 µg/mL. Moreover, the “MIC … P. aeruginosa VIM-2” value in experiment [11] was >8 µg/mL.

In the case of `CC[N+](CC)(CC)Cc1ccc(C(=O)N[C@@H](Cc2cccc(C(=O)O)c2O)B(O)O)cc1` [Example 13, (1R)-(4-(triethylammonium)methyl)-benzoylamino-(3-carboxy-2-hydroxy)benzyl-methyl boronic acid bromide], the IC50 in [1] is > 1000 nM; in experiment [2] it was 14 nM; in experiment [3], 4 nM; in experiment [4], 3 nM; in experiment [5], 340 nM; in experiment [6], > 1000 nM. The “MIC of example compound, E. coli SHV-5” value in experiment [7] was >8 µg/mL. Further, the “MIC … K. pneumoniae CTX-M-15” value in [8] is >8 µg/mL. Moreover, in experiment [9], the “MIC of example compound, E. cloacae P99+” value was >8 µg/mL. For the same compound, the “MIC … K. pneumoniae KPC-2” value in experiment [10] stood at 0.25 µg/mL. In experiment [11], the “MIC … P. aeruginosa VIM-2” value was >8 µg/mL.

Take `O=C(Cc1ccc(CN(CCO)CCO)cc1)N[C@@H](Cc1cccc(C(=O)O)c1O)B(O)O` [Example 39, (1R)-[2-(4-{[bis-(2-hydroxy-ethyl)-amino]-methyl}-phenyl)-acetylamino]-(3-carboxy-2-hydroxy)benzyl-methylboronic acid formate]: the IC50 in [1] is 970 nM; in experiment [2] it was 4 nM; in experiment [3] (setting [12]) it was 12 nM; in experiment [4], 26 nM; in experiment [5] (setting [13]), 469 nM; in experiment [6] (setting [14]) it was 167 nM. Besides, the “MIC of example compound, E. coli SHV-5” value in experiment [7] turned out to be 0.5 µg/mL. Moreover, the “MIC … K. pneumoniae CTX-M-15” value in [8] was 0.5 µg/mL. Also, the “MIC of example compound, E. cloacae P99+” value in experiment [9] worked out at 2 µg/mL. The “MIC … K. pneumoniae KPC-2” value in experiment [10] is 0.03 µg/mL. Moreover, the “MIC … P. aeruginosa VIM-2” value in experiment [11] is >8 µg/mL.

Broadly, the IC50 is the concentration that inhibits the measured activity by half.
